{
  "source": "patent US9751830B2",
  "about": "“Inhibitors of the tumor necrosis factor receptor complex” (The Trustees of the University of Pennsylvania, priority 2010, dated 2017)",
  "key": {"[1]": {"assay": "Solubility under the conditions of the L929 cytolysis assay", "format": "physicochemical", "conditions": "L929 cytolysis assay medium, plasma or biological fluid; read-out: soluble under these conditions only up to", "description": "(§1) Approximately 20 hours after plating the L929 cells on 96-well plates, they were re-fed onto fresh medium containing the test compounds (from 0 to 100 μM, final concentration)."}, "L929 cells": {"tested_on": "L929 cells", "assay": "Inhibition of TNF-α-induced cytolysis in L929 cells (Crystal Violet staining)", "format": "cell-based, murine", "description": "L929 cultured murine fibroblast cells were obtained from American Type Culture collection (Manassas, Va.). TNF-α was obtained from Roche Applied Science (T6674). Actinomycin D (ACTD) and Crystal Violet were obtained from Sigma-Aldrich. Testing compounds were dissolved in DMSO at 25 mM. Compounds F001 and FT002/F002, appearing in FIG. 3 and FIG. 2/FIG. 4, were described previously in application Ser. No. 11/815,134 as FIGS. 1-6 and 1-9, respectively, and are reproduced here for reference. Compound 71023, appearing in FIG. 1, was ([(aminocarbothioyl)amino]{[4-({[[(aminocarbothioyl)amino](ammonio)methyl]amino}methyl)-2,5-dimethylbenzyl]amino}methylidene)ammonium dichloride, available from Maybridge Chemicals, UK. Compound MH_072 (also described herein as the compound of formula (II)) was also obtained from Maybridge Chemicals, UK. Compound MH_0724 was synthesized by Sapient Discovery, San Diego, Calif., as described in Example 2.\n(§2) Stock L929 cells were grown on tissue culture plastic in complete Dulbecco's Modified Eagle Medium (DMEM) supplemented with 5 weight percent FBS [Fetal Bovine Serum], NEAA [non-essential amino acids], and glutamine. In a first set of experiments, L929 cells were plated using the same medium on 96-well tissue culture plates at high density (i.e., 30,000 cells/well) before use. In a second set of experiments, the testing compounds were pre-incubated with cells for 1 hour. hTNF-α (10 ng/ml) was added to cells for 30 minutes. Cell lysates were then collected for routine Western Blot.\nas §1\nFor the TNF-α challenges, approximately 30 minutes later, medium containing 4 unit/mL rh-TNF-α and actinomycin D (10 μg/mL) was added. The final concentrations of rh-TNF-α in the assays were […], which is the ED50 concentrations confirmed to induce 50% cell death. The final concentrations of actinomycin D in the assays were 2.5 μg/mL. The plates were incubated for an additional 16-20 hours at 37° C., 5 vol % CO2 in air.\nFor Crystal Violet staining, the culture medium was discarded and replaced with 0.2% by weight (in 2% by volume ethanol in water), 100 μL/well. After 15 minutes incubation at room temperature, the plates were washed 6 times with deionized water and dried at 37° C. for 40 minutes. Sodium dodecylsylfate (SDS), (1 wt % in water; 100 μL) was added to each well and mixed gently for 1 hour at room temperature. The plates were read at A570 nm"}, "[2]": {"tested_on": "phosphorylation of IκB (p-IκBα(Ser32))", "assay": "Western blot of TNFα-induced phosphorylation of IκB in L929 cells", "format": "cell-based, murine", "conditions": "FIG. 4", "description": "(§3) hTNF-α was obtained from Sigma (Cat # T6674). Antibodies for IκB, phospho-IκB, p38, and phospho-p38 were purchased from Cell Signaling.\nas §2\n(§4) Inhibition of TNFα signaling pathways: Upon binding to TNFRs, TNFα induces inflammation through the activation of NFκB and p38 signaling pathways. We determined IκB and p38 effects. IκB is the inhibitor for NFκB. TNFα leads to the phosphorylation and disassociation of IκB from NFκB, a signaling event required for NFκB to become activated and translocate into the nucleus to mediate gene transcription."}, "[3]": {"tested_on": "TNFα mediated NFκB activity (A549Luc cells)", "assay": "TNFα mediated NFκB luciferase reporter assay in A549Luc cells", "format": "cell-based, human", "conditions": "for inhibition of TNFα mediated luciferase activity: 1 hr pre-treatment, 20 ng/ml TNFα 4 hours, FIG. 7; for activity to reduce luciferase activity, F002 and MH0724 compared: concentrations up to 75 μM", "description": "To study TNFα mediated-NFκB activity, a luciferase reporter system was established. The stable cell line A549Luc was derived from human A549 cells with chromosomal integration of a luciferase reporter construct regulated by 6 copies of the NFκB response element. This clonal cell line was obtained by co-transfection of pNFκB-TA-luc and pFLAG-TNFR1-neo followed by G418 selection at 800 μg/ml. A549Luc cells were pre-treated with inhibitors at indicated concentrations for 1 hr before incubation with 20 ng/ml TNFα for 4 hours. Increased luciferase activity was recorded after TNFα treatment. Luciferase activity was determined using the Luciferase Assay System from Promega.\nIn this assay, the luciferase activity of A549Luc cells before and after TNFα treatment (20 ng/ml) was equivalent to 0% and 100%, respectively."}, "[4]": {"tested_on": "phosphorylation of p38 (p-p38)", "assay": "Western blot of TNFα-induced phosphorylation of p38 in L929 cells", "format": "cell-based, murine", "conditions": "50 μM; 1 hour pre-incubation, hTNF-α 10 ng/ml 30 minutes; FIG. 4", "description": "as §3, §2, §4"}, "[5]": {"molecular_target": "T1, TNFR1 ectodomain (TNFR1 ECD) (Homo sapiens, UniProt P19438)", "T1 construct": "The calorimetric cell containing purified TNFR1 ectodomain at a concentration of 0.1 mM; His; made in house", "T1 sequence (P19438 30-211 limits assumed)": "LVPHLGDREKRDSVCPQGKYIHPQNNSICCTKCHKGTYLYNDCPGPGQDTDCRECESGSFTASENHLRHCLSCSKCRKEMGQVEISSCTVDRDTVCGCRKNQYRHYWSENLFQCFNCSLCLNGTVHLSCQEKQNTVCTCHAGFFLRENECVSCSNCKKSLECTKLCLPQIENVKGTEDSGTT", "assay": "Isothermal titration calorimetry (ITC) binding to TNFR1 ectodomain", "conditions": "25° C., pH 8.0, 5% DMSO, estimated, read-out: affinity between compound and TNFR1 ECD", "description": "Human TNFR1 ectodomain was expressed in bacteria as described Murali, et al., 2005 PNAS 102:10970-75, which is incorporated by reference herein in its entirety. The His-tagged recombinant protein was purified from bacterial cell lysate using Ni-NTA column About 4 mg proteins were obtained from 6 liters of culture. The purified TNFR1 ectodomain was verified for binding activity to hTNF-α in ELISA assay.\nIsothermal Titration calorimetry (ITC). The binding thermodynamics of MH724 to TNFR1 was measured by ITC using a high precision VP-ITC titration calorimetric system (Microcal LLC, Northampton, Mass.). The calorimetric cell containing purified TNFR1 ectodomain at a concentration of 0.1 mM in 50 mM sodium phosphate buffer (pH 8.0) containing 300 mM NaCl and 5% DMSO was titrated with MH724 dissolved in the same buffer. The concentration of inhibitor was 2 mM. Injection volumes were 8 μl. All solutions were properly degassed to avoid any formation of bubbles in the calorimeter during stirring. The heat evolved upon each injection of inhibitor was obtained from the integral of the calorimetric signal. The heat associated with the binding of the inhibitor to TNFR1 was obtained by subtracting the heat of dilution from the heat of reaction. The measurements were made at 25° C. Data were analyzed and fitted by using the data analysis software supplied by Microcal (ORIGIN 5.0)."}},
  "data": [
    {"compound": "CC(=O)Nc1ccccc1OCC(O)CNCc1ccc(C(F)(F)F)cc1", "note": "(stereo not shown) [MH_072]", "values": [
      {"measurement": "solubility", "setting": "[1]", "value": "≤ 50", "unit": "µM"},
      {"measurement": "maximum inhibition of TNF-α-induced cytolysis", "setting": "L929 cells; 0 to 50 μM, level limited by solubility", "value": "about 30%"},
      {"measurement": "inhibition at 50 µM", "setting": "L929 cells; Mus musculus, L929, at 50 μM", "value": "~30", "unit": "%"},
      {"measurement": "inhibition of TNF-α-induced cytolysis in L929 cells", "setting": "L929 cells; from 0 to 50 μM, FIG. 2", "value": "dose-dependent inhibition"}
    ]},
    {"compound": "CC(=O)Oc1ccc(C(O)(c2ccc(OC(C)=O)cc2)c2ccc(OC(C)=O)cc2)cc1", "note": "[Compound F002, reference compound]", "values": [
      {"measurement": "activity on TNFα signaling, F002 compared with MH724", "setting": "[2]; 10 μM, IκB and p38 phosphorylation", "value": "slightly more activity"},
      {"measurement": "inhibition of TNFα mediated luciferase activity", "setting": "[3]", "value": "dose-dependent manner"},
      {"measurement": "activity to reduce luciferase activity, F002 and MH0724 compared", "setting": "[3]", "value": "comparable activity"}
    ]},
    {"compound": "COc1ccc(C(O)(c2ccc(OC)cc2)c2ccc(OC)cc2)cc1", "note": "[Compound F001, reference compound]", "values": [
      {"measurement": "inhibition of TNF-α-induced cytolysis in L929 cells", "setting": "L929 cells; from 0 to 100 μM, FIG. 3", "value": "minimal activity"}
    ]},
    {"compound": "COC(CNc1ccc(C(F)(F)F)cc1)COc1ccccc1COC(C)=O", "note": "(stereo not shown) [MH_0724, Acetic acid 2-[2-methoxy-3-(4-trifluoromethyl-phenylamino)-propoxy]-benzyl ester]", "values": [
      {"measurement": "inhibition of TNFα-induced phosphorylation of IκB", "setting": "[2]; 50 μM, 1 hour pre-incubation, hTNF-α 10 ng/ml 30 minutes", "value": "clearly inhibits"},
      {"measurement": "activity on TNFα signaling, MH724 compared with F002", "setting": "[2]; 50 μM, IκB and p38 phosphorylation", "value": "better activity"},
      {"measurement": "luciferase activity, of the control", "setting": "[3]; 100 μM, before and after TNFα treatment = 0% and 100%", "value": "less than 40%"},
      {"measurement": "inhibition of TNFα mediated luciferase activity", "setting": "[3]", "value": "dose-dependent manner"},
      {"measurement": "activity to reduce luciferase activity, F002 and MH0724 compared", "setting": "[3]", "value": "comparable activity"},
      {"measurement": "inhibition of TNFα-induced phosphorylation of p38", "setting": "[4]", "value": "clearly inhibits"},
      {"measurement": "Kd", "setting": "[5]", "value": 32, "unit": "µM"},
      {"measurement": "inhibition at 100 µM", "setting": "L929 cells; Mus musculus, L929, 100 μM, read-out: maximal inhibition of TNF-α-induced cytolysis", "value": "~70", "unit": "%"},
      {"measurement": "inhibition at 50 µM", "setting": "L929 cells; Mus musculus, L929, at 50 μM", "value": "~40", "unit": "%"},
      {"measurement": "inhibition of TNF-α-induced cytolysis", "setting": "L929 cells; at 50 μM", "value": "about 40%"},
      {"measurement": "inhibition of TNF-α-induced cytolysis in L929 cells", "setting": "L929 cells; from 0 to 100 μM, FIG. 3", "value": "dose-dependent inhibition"}
    ]}
  ]
}
